# Test results reported in article PMC4226252, “Biochemical interaction of anti-HCV telaprevir with the ABC transporters P-glycoprotein and breast cancer resistance protein” (BMC Research Notes, 2013).
# Where “and” joins values, the source holds several entries; their conditions need not be identical. Equal entries are not always repeated. Where two headings read alike, the source gives them in different places.
# Key:
# BCRP [1] = target: T1, BCRP (Homo sapiens, UniProt Q9UNQ0); test: Photoaffinity labeling of BCRP with [125I]-IAAP; assay type: binding; parameters: expressed in transfected cells; host or cells: K562/BCRP cells (plasma membrane vesicles); conditions: for BCRP band intensity (% of no-inhibitor): human, 10 min, pH 7.4
# T1 sequence (Q9UNQ0 1-655): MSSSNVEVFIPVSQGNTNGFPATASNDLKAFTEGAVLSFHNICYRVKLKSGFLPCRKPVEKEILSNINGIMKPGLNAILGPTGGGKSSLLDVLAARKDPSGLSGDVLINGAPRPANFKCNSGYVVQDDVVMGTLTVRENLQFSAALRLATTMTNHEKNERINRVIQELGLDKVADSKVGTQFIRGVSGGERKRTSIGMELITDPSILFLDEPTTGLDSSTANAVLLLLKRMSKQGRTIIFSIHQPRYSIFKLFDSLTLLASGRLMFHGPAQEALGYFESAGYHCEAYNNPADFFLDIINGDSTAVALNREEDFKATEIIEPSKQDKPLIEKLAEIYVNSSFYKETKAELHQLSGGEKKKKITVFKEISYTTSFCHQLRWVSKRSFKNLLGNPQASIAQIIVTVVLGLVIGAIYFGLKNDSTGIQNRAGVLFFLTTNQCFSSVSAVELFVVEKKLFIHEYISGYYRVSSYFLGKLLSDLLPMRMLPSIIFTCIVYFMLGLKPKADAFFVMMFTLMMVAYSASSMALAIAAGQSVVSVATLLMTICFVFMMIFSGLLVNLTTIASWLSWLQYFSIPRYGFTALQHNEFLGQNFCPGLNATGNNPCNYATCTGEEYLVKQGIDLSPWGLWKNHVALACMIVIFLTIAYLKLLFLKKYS
# Protocol: (§1) Photoaffinity labeling assay was done as described previously. In brief, plasma membrane fractions (45 μg protein/sample) were pre-incubated at 4°C for 5 min at the indicated concentration of telaprevir in 0.25 mol/L sucrose solution containing 10 mmol/L HEPES-NaOH (pH 7.4). Then, 5 nmol/L radioactive iodine-labeled IAAP, i.e., [^125I]-IAAP (2200 Ci/mmol), was added and the mixture incubated for an additional 10 min. Samples were kept on ice and illuminated with an ultraviolet lamp (B-100AP; UVP, Upland, CA, USA) at 365 nm for 30 min. These processes were carried out on ice. For the BCRP assay, the labeled BCRP protein was solubilized in a buffer (1% NP-40, 20 mmol/L Tris–HCl (pH 7.4), 150 mmol/L NaCl, 1 mmol/L ethylenediamine tetra-acetic acid (EDTA)) and immunoprecipitated with anti-BCRP antibody BXP-21 (Millipore, Billerica, MA, USA), then solubilized by Laemmli sodium dodecyl sulfate (SDS) buffer. For the P-gp assay, membrane fractions were solubilized directly by Laemmli SDS buffer. Samples were separated by sodium dodecyl sulfate-polyacrylamide gel electrophoresis (SDS-PAGE), and gels were dried. The binding of [^125I]-IAAP with P-gp and BCRP was quantified using a FLA7000 Bioimage Analyzer (Fuji Film, Tokyo, Japan) and Multi-Gauge software (Fuji Film).
# Figure 3 Effect of telaprevir on photoaffinity labeling of P-gp and BCRP with [^125I]-IAAP. K562/MDR- or K562/BCRP-vesicles were mixed with the indicated concentrations of telaprevir for 5 min. Vesicles were pre-incubated with 5 nmol/L [^125I]-IAAP (2200 Ci/mmol) for 10 min, and then illuminated with a UV lamp (365 nm) for 30 min. IAAP-labeled protein was solubilized by Laemmli SDS buffer directly (for the P-gp assay) or after immunoprecipitation (for the BCRP assay), and subjected to SDS-PAGE. Signals were visualized and analyzed with a FLA7000 system. The black arrowheads are P-gp or BCRP. […] The binding of [^125I]-IAAP with P-gp and BCRP was calculated from standard curve analysis using a FLA7000 Bioimage Analyzer (Fuji Film, Tokyo, Japan) and Multi-Gauge software (Fuji Film). […] I copied these numbers as results for the inhibitors, although gels and blots are otherwise left out. / The value 0 under the 'K562 vesicle' control lane in panels A and B is left out because it belongs to no substance.
# OCT1 = conditions: cited from earlier work
# MATE1 = conditions: cited from earlier work
# P-gp [2] = target: T2, P-gp (Homo sapiens, UniProt P08183)
# Protocol: (§2) Then, they were mixed with [^3H]-labeled VCR (for P-gp) or E1S or MTX (for BCRP), and telaprevir at the indicated concentration in the reaction buffer (0.25 mol/L sucrose, 10 mmol/L HEPES-NaOH (pH 7.4), 10 mmol/L MgCl2, 10 mmol/L phosphocreatine, 100 μg/mL creatine phosphokinase, with or without 3 mmol/L adenosine triphosphate (ATP)) in a total volume of 50 μL. After 10 min of incubation at 25°C, the reaction mixture was stopped by the addition of ice-cold stop solution (0.25 mol/L sucrose, 10 mmol/L HEPES-NaOH (pH 7.4), 0.1 mol/L NaCl) and centrifuged at 18,000 × g for 10 min at 4°C. The pellets were solubilized by a liquid scintillation counter to measure their radioactivity levels. For kinetics analyses, the Michaelis–Menten equation and Lineweaver–Burk plots were applied to visualize the mechanism of transport inhibition, as v = Vmax[S]/([S] + (1 + [I]/Ki)Km), where [S] and [I] are concentrations of substrate and inhibitor respectively, and v is velocity of substrate uptake by transporter.
# (§3) Figure 1 Effect of telaprevir on the intravesicular transport of vincristine sulfate (VCR) by P-gp. A. The ability to transport VCR in telaprevir-absent or -present conditions was determined by measuring the radioactivity taken up in membrane vesicles. B. Analyses of Lineweaver–Burk plots of inhibition of VCR uptake by P-gp. The VCR concentration was 100 nmol/L (A) and 50, 100, and 200 nmol/L (B), and of telaprevir was 0, 1, 10, and 100 μmol/L (A) and 20 μmol/L (B), respectively. Membrane vesicles from K562/MDR cells were mixed with each concentration of VCR, telaprevir, and 3 mmol/L of ATP in the incubation medium as described in the Methods section. VCR uptake is shown for parental K562 (white column for ATP-absent; gray column for ATP-present) and K562⁄MDR (dark-gray column for ATP-absent; black column for ATP-present) (A) and the inverse is shown for no inhibitor (open rhombus) and with telaprevir (black circle) (B). Results are means ± SD of triplicate (A) or quadruplicate (B) determinations.
# BCRP [3] = target: T1, BCRP; test: biochemical; conditions: for IC50: IC50 of telaprevir on BCRP-mediated transport; for Ki: Lineweaver-Burk plot, 50 μmol/L telaprevir
# Protocol: as §2
# (§4) A. The ability to transport E1S at telaprevir-absent or -present conditions was determined by measuring the radioactivity of [^3H]-E1S taken up in membrane vesicles. A similar experiment was done for MTX. […] E1S concentration was 50 nmol/L (A) and 50, 100, and 200 nmol/L (B), and of telaprevir was 0, 1, 10, and 100 μmol/L (A) and 50 μmol/L (B), respectively. MTX concentration was 100 nmol/L (A), and 100, 200 and 400 nmol/L (B). Membrane vesicles of K562/BCRP cells were used.
# OATP1B1 = conditions: cited from earlier work
# BCRP [4] = target: T1, BCRP
# Protocol: as §2, §4
# P-gp [5] = target: T2, P-gp; test: Photoaffinity labeling of P-gp with [125I]-IAAP; assay type: binding; parameters: expressed in transfected cells; host or cells: K562/MDR cells (plasma membrane vesicles); conditions: for P-gp band intensity (% of no-inhibitor): human, 10 min, pH 7.4
# Protocol: as §1
# Figure 3 Effect of telaprevir on photoaffinity labeling of P-gp and BCRP with [^125I]-IAAP. K562/MDR- or K562/BCRP-vesicles were mixed with the indicated concentrations of telaprevir for 5 min. Vesicles were pre-incubated with 5 nmol/L [^125I]-IAAP (2200 Ci/mmol) for 10 min, and then illuminated with a UV lamp (365 nm) for 30 min. IAAP-labeled protein was solubilized by Laemmli SDS buffer directly (for the P-gp assay) or after immunoprecipitation (for the BCRP assay), and subjected to SDS-PAGE. Signals were visualized and analyzed with a FLA7000 system. The black arrowheads are P-gp or BCRP. […] The binding of [^125I]-IAAP with P-gp and BCRP was calculated from standard curve analysis using a FLA7000 Bioimage Analyzer (Fuji Film, Tokyo, Japan) and Multi-Gauge software (Fuji Film).
# OATP1B = conditions: cited from earlier work
# OCT2 = conditions: cited from earlier work
# P-gp [6] = target: T2, P-gp; test: biochemical
# Protocol: as §2, §3
# P-gp [7] = target: T2, P-gp; parameters: expressed in transfected cells; host or cells: K562/MDR cells (plasma membrane vesicles); method as in PMID 23293300, PMID 22331658; conditions: cellular system; cited from earlier work
# BCRP [8] = target: T1, BCRP; parameters: expressed in transfected cells; host or cells: K562/BCRP cells (plasma membrane vesicles); method as in PMID 23293300, PMID 22331658; conditions: cellular system; cited from earlier work
# T2 sequence (P08183 whole entry): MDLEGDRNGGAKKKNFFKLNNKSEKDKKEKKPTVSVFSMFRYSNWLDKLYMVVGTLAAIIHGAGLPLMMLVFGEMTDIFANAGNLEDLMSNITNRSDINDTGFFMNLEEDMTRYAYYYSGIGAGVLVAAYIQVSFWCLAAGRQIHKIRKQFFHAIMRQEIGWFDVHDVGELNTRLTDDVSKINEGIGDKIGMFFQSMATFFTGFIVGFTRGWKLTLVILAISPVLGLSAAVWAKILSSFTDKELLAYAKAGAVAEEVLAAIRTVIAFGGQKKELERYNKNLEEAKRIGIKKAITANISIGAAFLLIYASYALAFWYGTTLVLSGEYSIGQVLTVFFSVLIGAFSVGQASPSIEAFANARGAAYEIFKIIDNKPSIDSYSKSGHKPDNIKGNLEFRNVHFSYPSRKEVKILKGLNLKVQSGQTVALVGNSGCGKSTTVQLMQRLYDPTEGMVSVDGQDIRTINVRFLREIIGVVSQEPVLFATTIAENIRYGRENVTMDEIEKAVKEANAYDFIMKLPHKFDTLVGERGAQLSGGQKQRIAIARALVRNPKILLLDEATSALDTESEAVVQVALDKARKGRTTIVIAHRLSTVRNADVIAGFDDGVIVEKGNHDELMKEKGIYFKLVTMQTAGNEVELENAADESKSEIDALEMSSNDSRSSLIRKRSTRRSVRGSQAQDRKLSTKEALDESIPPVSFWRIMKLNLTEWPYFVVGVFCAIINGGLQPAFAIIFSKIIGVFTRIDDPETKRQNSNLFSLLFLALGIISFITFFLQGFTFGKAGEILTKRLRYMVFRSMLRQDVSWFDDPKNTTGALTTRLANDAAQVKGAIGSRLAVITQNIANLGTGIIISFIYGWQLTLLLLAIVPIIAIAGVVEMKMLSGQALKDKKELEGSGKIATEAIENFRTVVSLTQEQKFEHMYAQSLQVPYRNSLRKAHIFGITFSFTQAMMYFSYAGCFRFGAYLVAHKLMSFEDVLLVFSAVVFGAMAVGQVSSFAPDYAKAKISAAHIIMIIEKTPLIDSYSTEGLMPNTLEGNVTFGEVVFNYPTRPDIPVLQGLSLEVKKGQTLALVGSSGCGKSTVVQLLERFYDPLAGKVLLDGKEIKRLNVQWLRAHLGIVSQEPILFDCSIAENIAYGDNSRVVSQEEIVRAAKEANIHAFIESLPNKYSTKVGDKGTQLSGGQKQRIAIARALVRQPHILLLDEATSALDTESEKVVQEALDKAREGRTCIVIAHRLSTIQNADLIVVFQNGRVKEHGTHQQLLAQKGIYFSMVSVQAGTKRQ
smiles,measurement,setting,value
CCC[C@H](NC(=O)[C@@H]1[C@H]2CCC[C@H]2CN1C(=O)[C@@H](NC(=O)[C@@H](NC(=O)c1cnccn1)C1CCCCC1)C(C)(C)C)C(=O)C(=O)NC1CC1 [telaprevir],IC50,BCRP [1],> 80 µM
same,BCRP band intensity (% of no-inhibitor),BCRP [1]; 5 μmol/L,95 % of no-inhibitor
same,BCRP band intensity (% of no-inhibitor),BCRP [1]; 20 μmol/L,72 % of no-inhibitor
same,BCRP band intensity (% of no-inhibitor),BCRP [1]; 80 μmol/L,58 % of no-inhibitor
same,IC50,OCT1,20.7 µM
same,IC50,MATE1,23 µM
same,Inhibitory mode,P-gp [2],competitive
same,Vmax,"P-gp [2]; human, 10 min, 20 μmol/L, pH 7.4",7.1 pmol/mg/10 min
same,IC50,"BCRP [3]; substrate E1S, K562/BCRP vesicles",30 µM
same,IC50,"BCRP [3]; substrate MTX, K562/BCRP vesicles",31 µM
same,IC50,BCRP [3]; substrate not specified,~30 µM
same,Ki,BCRP [3]; BCRP-mediated E1S transport,44 µM and 44.4 µM
same,Ki,BCRP [3]; BCRP-mediated MTX transport,94.8 µM
same,IC50,OATP1B1,2.2 µM
same,Inhibitory mode,BCRP [4],competitive
same,IC50,"P-gp [5]; IC50 on [125I]-IAAP binding with P-gp, K562/MDR vesicles, 5 nmol/L [125I]-IAAP",16.5 µM
same,P-gp band intensity (% of no-inhibitor),P-gp [5]; 2.5 μmol/L,85 % of no-inhibitor
same,P-gp band intensity (% of no-inhibitor),P-gp [5]; 5 μmol/L,71 % of no-inhibitor
same,P-gp band intensity (% of no-inhibitor),P-gp [5]; 10 μmol/L,64 % of no-inhibitor
same,P-gp band intensity (% of no-inhibitor),P-gp [5]; 20 μmol/L,47 % of no-inhibitor
same,P-gp band intensity (% of no-inhibitor),P-gp [5]; 40 μmol/L,30 % of no-inhibitor
same,IC50,OATP1B,36.8 µM
same,IC50,OCT2,6.4 µM
same,Ki,P-gp [6],4.8 µM
same,IC50,"P-gp [6]; IC50 of telaprevir on P-gp-mediated transport, substrate VCR, K562/MDR vesicles",~7 µM and 7 µM
CC(C)(C)NC(=O)N[C@H](C(=O)N1C[C@H]2[C@@H]([C@H]1C(=O)NC(CC1CCC1)C(=O)C(N)=O)C2(C)C)C(C)(C)C (stereo partly drawn) [boceprevir],Inhibitory effect on P-gp,P-gp [7],very low
same,IC50,BCRP [8],~80 µM
